From patent US20260034123A1 (Cedilla Therapeutics, Inc., priority 2022, published 2026)

Tests used:
[1] = molecular target: CDK2/Cyclin E1 (Homo sapiens, UniProt P24941); experiment: ADP-Glo Luminescent Kinase Assay (CDK2/E1-37C); type: biochemical; details: 0.18 nM CDK2/Cyclin E1, 100 μM ATP, Histone H1, 37° C.; read-out: ADPGLO (CDK2/E1-37C): IC50
Description: Inhibition of CDK2/Cyclin E1 activity by the presence of small molecules was evaluated using ADP-Glo Luminescent Kinase Assay (Promega). Activated CDK2/Cyclin E1 was incubated with its substrate Histone H1 (SignalChem H10-54N) in the kinase reaction buffer (100 μM ATP, 50 mM HEPES pH 7.5, 10 mM MgCl2, 1 mM EDTA, 2 mM DTT, 0.01% Brij35, 0.5 mg/mL BSA). Luminescence was recorded with an Envision plate reader (PerkinElmer).
Dose titrations of inhibitors in 100% DMSO were combined with 0.36 nM CDK2/Cyclin E1 in reaction buffer. The mixtures were incubated for 60 minutes at 37° C. before the addition of ATP and Histone H1 substrate to initiate the kinase reaction. The final conditions were 0.18 nM CDK2/Cyclin E1, 100 μM ATP, and […] Histone H1. The reactions were incubated at 37° C. for 90 minutes before being stopped with the addition of ADP-Glo reagent. This mixture was incubated at room temperature for 60 minutes before Kinase Detection Solution is added to generate luminescence. The stopped reactions were analyzed on an Envision plate reader. The conversion ratios were normalized to yield % activity, plotted against compound concentration, and fit to a four-parameter equation to determine the IC50 for each compound.

[2] = system: Kuramochi cells RB-WT; experiment: IncuCyte Kuramochi cell proliferation assay, RB-WT; type: cell-based; details: 72 hours, cell count
Description: IncuCyte® assay was used to measure the effect of disclosed compounds on cell proliferation. Fluorescent microscopy images of cells were taken immediately after compound treatment and 72 hours later. Image analysis software was used to obtain cell counts as a function of compound concentration. Kuramochi cells labeled with mApple-H2B were seeded on 384-well assay-ready plates. Plates were placed in an IncuCyte® (Sartorius) and scanned at 0 and 72 hours. IncuCyte® software was used to count the number of fluorescent nuclei in each well. The fold change in cell count from 0 to 72 hours in wells treated with increasing compounds concentrations (10 pts, 1/2 log dilution, 20 µM top concentration) was normalized to DMSO control wells. The normalized cell counts were fit with dose response curves and a GI50 was calculated.

Compound	IC50 [1] [µM]	IC50 [2] [µM]
CC(C)(C(=O)N1CC2(CN(C(=O)c3cnn(Cc4ccc(F)cc4)c3)C[C@H]2COCc2c(F)ccc(C3CCC(F)(F)CC3)c2C(=O)O)C1)C(F)(F)F [I′-13]	≤ 0.5	–
CC(C)(C(=O)N1CC2(CN(C(=O)c3cnn(Cc4ccc(F)cc4)c3)C[C@H]2COCc2cccc(C3=CCCC3)c2C(=O)O)C1)C(F)(F)F [I′-12]	≤ 0.5	–
O=C(O)c1c(COC[C@@H]2CN(C(=O)c3cnn(Cc4ccc(F)cc4)c3)CC23CN(C(=O)C2CCOCC2)C3)cccc1C1CCC(F)(F)CC1 [I′-15]	0.5 to 5	–
CN(C)CCNC(=O)c1c(COC[C@@H]2CN(C(=O)c3cnn(Cc4ccc(F)cc4)c3)CC23CN(C(=O)C(C)(C)C(F)(F)F)C3)cccc1C1CCC(F)(F)CC1 [I′-18]	≤ 0.5	–
O=C(O)c1c(COC[C@@H]2CN(C(=O)c3cnn(Cc4ccc(F)cc4)c3)CC23CN(C(=O)C24CC(C2)C4)C3)cccc1C1CCC(F)(F)CC1 [I′-17, (S)-2-(((2-(bicyclo[11.1.1]pentane-1-carbonyl)-6-(1-(4-fluorobenzyl)-1H-pyrazole-4-carbonyl)-2,6-diazaspiro[3.4]octan-8-yl)methoxy)methyl)-6-(4,4-difluorocyclohexyl)benzoic acid]	≤ 0.5	–
CC(C)(C(=O)N1CC2(CN(C(=O)c3cnn(Cc4ccc(F)cc4)c3)C[C@H]2COCc2ccccc2C(=O)O)C1)C(F)(F)F [I′-11]	> 10	–
CC(C)C(=O)N1CC2(CN(C(=O)c3cnn(Cc4ccc(F)cc4)c3)C[C@H]2COCc2cccc(C3CCC(F)(F)CC3)c2C(=O)O)C1 [I′-16, (S)-2-(4,4-difluorocyclohexyl)-6-(((6-(1-(4-fluorobenzyl)-1H-pyrazole-4-carbonyl)-2-isobutyryl-2,6-diazaspiro[3.4]octan-8-yl)methoxy)methyl)benzoic acid]	≤ 0.5	–
CC(C)(C(=O)N1CC2(C1)CN(c1cc(F)c(F)c3ncsc13)C[C@H]2COCc1c(F)ccc(C2CCC(F)(F)CC2)c1C(=O)O)C(F)(F)F [I′-14, (S)-2-(((6-(4,5-difluorobenzo[d]thiazol-7-yl)-2-(3,3,3-trifluoro-2,2-dimethylpropanoyl)-2,6-diazaspiro[3.4]octan-8-yl)methoxy)methyl)-6-(4,4-difluorocyclohexyl)-3-fluorobenzoic acid]	≤ 0.5	–

Further lines, with some results ahead:

IC50 [1] [µM]	Compound	IC50 [2] [µM]
> 10	O=C(O)c1c(COCC2CN(c3cc(F)cc4ncsc34)CC23CN(C(=O)C2(C(F)(F)F)CC2)C3)cccc1C1CCC(C(F)(F)F)CC1 (stereo not shown) [Compound I-61, 2-(((6-(5-fluorobenzo[d]thiazol-7-yl)-2-(1-(trifluoromethyl)cyclopropane-1-carbonyl)-2,6-diazaspiro[3.4]octan-8-yl)methoxy)methyl)-6-(4-(trifluoromethyl)cyclohexyl)benzoic acid]	> 10
≤ 0.5	CC1(C)C[C@@H]1C(=O)N1CC2(CN(C(=O)c3cnn(Cc4ccccc4C(=O)O)c3)C[C@H]2COCc2cccc(C3CCC(C(F)(F)F)CC3)n2)C1 (stereo partly drawn) [Compound I-54, 2-((4-((S)-2-((S)-2,2-dimethylcyclopropane-1-carbonyl)-8-(((6-(4-(trifluoromethyl)cyclohexyl)pyridin-2-yl)methoxy)methyl)-2,6-diazaspiro[3.4]octane-6-carbonyl)-1H-pyrazol-1-yl)methyl)benzoic acid]	> 10
> 10	COC(=O)c1c(O)cc(COCC2CN(C(=O)c3cnn(Cc4ccc(C(F)(F)F)cc4)c3)CC23CN(C(=O)C2(C(F)(F)F)CC2)C3)cc1-c1ccc(C(F)(F)F)cc1 (stereo not shown) [Compound I-55, methyl 3-hydroxy-4′-(trifluoromethyl)-5-(((6-(1-(4-(trifluoromethyl)benzyl)-1H-pyrazole-4-carbonyl)-2-(1-(trifluoromethyl)cyclopropane-1-carbonyl)-2,6-diazaspiro[3.4]octan-8-yl)methoxy)methyl)-[1,1′-biphenyl]-2-carboxylate]	5 to 10
> 10	N#Cc1ccc(Cn2cc(C(=O)N3CC(C(=O)NS(=O)(=O)c4cccc(C5(C(F)(F)F)CC5)c4)C4(C3)CN(C(=O)C3(C(F)(F)F)CC3)C4)cn2)cc1 (stereo not shown) [Compound I-59, 6-(1-(4-cyanobenzyl)-1H-pyrazole-4-carbonyl)-2-(1-(trifluoromethyl)cyclopropane-1-carbonyl)-N-((3-(1-(trifluoromethyl)cyclopropyl)phenyl)sulfonyl)-2,6-diazaspiro[3.4]octane-8-carboxamide]	> 10
> 10	O=C(NS(=O)(=O)c1cccc(C2CCOCC2)c1)[C@@H]1CN(C(=O)c2cnn(Cc3ccc(C(F)(F)F)cc3)c2)CC12CN(C(=O)C1(C(F)(F)F)CC1)C2 [Compound I-58, (S)—N-((3-(tetrahydro-2H-pyran-4-yl)phenyl)sulfonyl)-6-(1-(4-(trifluoromethyl)benzyl)-1H-pyrazole-4-carbonyl)-2-(1-(trifluoromethyl)cyclopropane-1-carbonyl)-2,6-diazaspiro[3.4]octane-8-carboxamide]	> 10
> 10	O=C(c1cnc(O)cn1)N1CC(CS(=O)(=O)Cc2cccc(-c3ccc(C(F)(F)F)cc3)n2)C2(C1)CN(C(=O)[C@H]1CC1(F)F)C2 (stereo partly drawn) [Compound I-3, (2-((R)-2,2-difluorocyclopropane-1-carbonyl)-8-((((6-(4-(trifluoromethyl)phenyl)pyridin-2-yl)methyl)sulfonyl)methyl)-2,6-diazaspiro[3.4]octan-6-yl)(5-hydroxypyrazin-2-yl)methanone]	> 10
> 10	CC(C)(C)OC(=O)c1c(COCC2CN(c3cc(F)cc4ncsc34)CC23CN(C(=O)C2(C(F)(F)F)CC2)C3)cccc1C1CCC(C(F)(F)F)CC1 (stereo not shown) [Compound I-57, tert-butyl 2-(((6-(5-fluorobenzo[d]thiazol-7-yl)-2-(1-(trifluoromethyl)cyclopropane-1-carbonyl)-2,6-diazaspiro[3.4]octan-8-yl)methoxy)methyl)-6-(4-(trifluoromethyl)cyclohexyl)benzoate]	> 10
5 to 10	CC1(C)C[C@@H]1C(=O)N1CC2(CN(C(=O)c3cncs3)CC2COCC(=O)N2CCC(c3ccc(C(=O)O)cc3OC3CCCCC3)CC2)C1 (stereo partly drawn) [Compound I-56, 3-(cyclohexyloxy)-4-(1-(2-((2-((S)-2,2-dimethylcyclopropane-1-carbonyl)-6-(thiazole-5-carbonyl)-2,6-diazaspiro[3.4]octan-8-yl)methoxy)acetyl)piperidin-4-yl)benzoic acid]	> 10
> 10	O=C(O)C(=CC1CN(C(=O)c2cnn(Cc3ccc(C(F)(F)F)cc3)c2)CC12CN(C(=O)C1(C(F)(F)F)CC1)C2)Cc1cccc(-c2ccc(C(F)(F)F)cc2)n1 (stereo not shown) [Compound I-62, 3-(6-(1-(4-(Trifluoromethyl)benzyl)-1H-pyrazole-4-carbonyl)-2-(1-(trifluoromethyl)cyclopropane-1-carbonyl)-2,6-diazaspiro[3.4]octan-8-yl)-2-((6-(4-(trifluoromethyl)phenyl)pyridin-2-yl)methyl)acrylic acid]	> 10
5 to 10	N#Cc1ccc(Cn2cc(C(=O)N3CC(CS(=O)(=O)Cc4cccc(-c5ccc(C(F)(F)F)cc5)n4)C4(C3)CN(C(=O)C3(C(F)(F)F)CC3)C4)cn2)cc1 (stereo not shown) [Compound I-2]	> 10
> 10	O=C(NS(=O)(=O)c1cccc(C2CCOCC2)c1)C1CN(c2cc(F)cc3ncsc23)CC12CN(C(=O)C1(C(F)(F)F)CC1)C2 (stereo not shown) [Compound I-53, 6-(5-fluorobenzo[d]thiazol-7-yl)-N-((3-(tetrahydro-2H-pyran-4-yl)phenyl)sulfonyl)-2-(1-(trifluoromethyl)cyclopropane-1-carbonyl)-2,6-diazaspiro[3.4]octane-8-carboxamide]	> 10
5 to 10	O=C(NS(=O)(=O)c1cccc(C2CCCCC2)c1)C1CN(C(=O)c2cnn(Cc3ccccc3)c2)CC12CN(C(=O)[C@H]1CC1(F)F)C2 (stereo partly drawn) [Compound I-1, 6-(1-benzyl-1H-pyrazole-4-carbonyl)-N-((3-cyclohexylphenyl)sulfonyl)-2-((R)-2,2-difluorocyclopropane-1-carbonyl)-2,6-diazaspiro[3.4]octane-8-carboxamide]	> 10
≤ 0.5	O=C(O)c1c(COC[C@@H]2CN(C(=O)c3cnn(Cc4ccc(F)cc4)c3)CC23CN(C(=O)C2(C(F)(F)F)CC2)C3)cccc1C1CCC(F)(F)CC1 [Compound I-51, (S)-2-(4,4-difluorocyclohexyl)-6-(((6-(1-(4-fluorobenzyl)-1H-pyrazole-4-carbonyl)-2-(1-(trifluoromethyl)cyclopropanecarbonyl)-2,6-diazaspiro[3.4]octan-8-yl)methoxy)methyl) benzoic acid]	5 to 10
